Data on one compound can be found in ChEMBL document CHEMBL5329217, “Hesperidin Methyl Chalcone reduces extracellular Aβ(25-35) peptide aggregation and fibrillation and also protects Neuro 2a cells from Aβ(25-35) induced neuronal dysfunction” (Bioorg Med Chem, 2023).

SMILES strings stand for the structures. Activity calls are given as the source filed them. The calls are words filed in the database; no cut-off is given here.

The target in the test is Amyloid-beta precursor protein (Homo sapiens) (UniProt P05067). Kind of test: Disaggregation of amyloid beta (25 to 35) (unknown origin) mature fibrils at 50 ug/ml incubated for 1 to 9 days by ThT-based fluorescence microscopic analysis. The following applies: dose 50.0 µg/ml, time 1-9 day.
Amyloid-beta precursor protein (Homo sapiens), sequence (P05067 whole entry): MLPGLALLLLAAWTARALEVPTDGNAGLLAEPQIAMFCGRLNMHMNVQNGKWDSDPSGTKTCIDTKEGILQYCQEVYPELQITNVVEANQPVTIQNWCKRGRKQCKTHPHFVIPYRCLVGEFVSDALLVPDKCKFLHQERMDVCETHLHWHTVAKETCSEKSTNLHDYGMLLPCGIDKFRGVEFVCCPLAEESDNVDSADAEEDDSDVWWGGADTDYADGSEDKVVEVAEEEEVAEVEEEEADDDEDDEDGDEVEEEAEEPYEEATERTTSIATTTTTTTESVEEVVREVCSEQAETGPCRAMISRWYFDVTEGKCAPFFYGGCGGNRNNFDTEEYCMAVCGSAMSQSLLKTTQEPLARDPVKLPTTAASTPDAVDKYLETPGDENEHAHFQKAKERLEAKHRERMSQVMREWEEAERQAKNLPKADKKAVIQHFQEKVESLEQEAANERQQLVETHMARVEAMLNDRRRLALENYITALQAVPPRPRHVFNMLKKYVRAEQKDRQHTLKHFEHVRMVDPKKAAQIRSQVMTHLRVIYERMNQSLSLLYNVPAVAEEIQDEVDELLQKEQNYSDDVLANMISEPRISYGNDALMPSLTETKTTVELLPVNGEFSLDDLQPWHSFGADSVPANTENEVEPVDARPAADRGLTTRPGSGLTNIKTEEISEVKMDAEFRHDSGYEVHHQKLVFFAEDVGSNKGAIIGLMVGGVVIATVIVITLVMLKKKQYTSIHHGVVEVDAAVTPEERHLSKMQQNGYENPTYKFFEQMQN

As to `COc1ccc2c3c1O[C@H]1C[C@@H](O)C=C[C@@]31CCN(C)C2`, the outcome was Active.
